Measured values from patent US12509453B2, “BRM/BRG1 inhibitors and uses thereof” (Foghorn Therapeutics Inc., priority 2019, dated 2025).

How the values were obtained:
BRG-1 = molecular target: T1, BRG-1 (Homo sapiens, UniProt P51532); experiment: ATPase catalytic activity assay (ADP-Glo), BRG-1; assay type: biochemical; settings: 30 nM BRG-1, 400 μM ATP; for IC50: 20 nM salmon sperm DNA, read-out: BRG1 IP50 (μM)*; for Emax: read-out: BRG1 Max % Inhibition
T1 construct: made in house; host or cells: High Five insect cells
T1 sequence (P51532 whole entry): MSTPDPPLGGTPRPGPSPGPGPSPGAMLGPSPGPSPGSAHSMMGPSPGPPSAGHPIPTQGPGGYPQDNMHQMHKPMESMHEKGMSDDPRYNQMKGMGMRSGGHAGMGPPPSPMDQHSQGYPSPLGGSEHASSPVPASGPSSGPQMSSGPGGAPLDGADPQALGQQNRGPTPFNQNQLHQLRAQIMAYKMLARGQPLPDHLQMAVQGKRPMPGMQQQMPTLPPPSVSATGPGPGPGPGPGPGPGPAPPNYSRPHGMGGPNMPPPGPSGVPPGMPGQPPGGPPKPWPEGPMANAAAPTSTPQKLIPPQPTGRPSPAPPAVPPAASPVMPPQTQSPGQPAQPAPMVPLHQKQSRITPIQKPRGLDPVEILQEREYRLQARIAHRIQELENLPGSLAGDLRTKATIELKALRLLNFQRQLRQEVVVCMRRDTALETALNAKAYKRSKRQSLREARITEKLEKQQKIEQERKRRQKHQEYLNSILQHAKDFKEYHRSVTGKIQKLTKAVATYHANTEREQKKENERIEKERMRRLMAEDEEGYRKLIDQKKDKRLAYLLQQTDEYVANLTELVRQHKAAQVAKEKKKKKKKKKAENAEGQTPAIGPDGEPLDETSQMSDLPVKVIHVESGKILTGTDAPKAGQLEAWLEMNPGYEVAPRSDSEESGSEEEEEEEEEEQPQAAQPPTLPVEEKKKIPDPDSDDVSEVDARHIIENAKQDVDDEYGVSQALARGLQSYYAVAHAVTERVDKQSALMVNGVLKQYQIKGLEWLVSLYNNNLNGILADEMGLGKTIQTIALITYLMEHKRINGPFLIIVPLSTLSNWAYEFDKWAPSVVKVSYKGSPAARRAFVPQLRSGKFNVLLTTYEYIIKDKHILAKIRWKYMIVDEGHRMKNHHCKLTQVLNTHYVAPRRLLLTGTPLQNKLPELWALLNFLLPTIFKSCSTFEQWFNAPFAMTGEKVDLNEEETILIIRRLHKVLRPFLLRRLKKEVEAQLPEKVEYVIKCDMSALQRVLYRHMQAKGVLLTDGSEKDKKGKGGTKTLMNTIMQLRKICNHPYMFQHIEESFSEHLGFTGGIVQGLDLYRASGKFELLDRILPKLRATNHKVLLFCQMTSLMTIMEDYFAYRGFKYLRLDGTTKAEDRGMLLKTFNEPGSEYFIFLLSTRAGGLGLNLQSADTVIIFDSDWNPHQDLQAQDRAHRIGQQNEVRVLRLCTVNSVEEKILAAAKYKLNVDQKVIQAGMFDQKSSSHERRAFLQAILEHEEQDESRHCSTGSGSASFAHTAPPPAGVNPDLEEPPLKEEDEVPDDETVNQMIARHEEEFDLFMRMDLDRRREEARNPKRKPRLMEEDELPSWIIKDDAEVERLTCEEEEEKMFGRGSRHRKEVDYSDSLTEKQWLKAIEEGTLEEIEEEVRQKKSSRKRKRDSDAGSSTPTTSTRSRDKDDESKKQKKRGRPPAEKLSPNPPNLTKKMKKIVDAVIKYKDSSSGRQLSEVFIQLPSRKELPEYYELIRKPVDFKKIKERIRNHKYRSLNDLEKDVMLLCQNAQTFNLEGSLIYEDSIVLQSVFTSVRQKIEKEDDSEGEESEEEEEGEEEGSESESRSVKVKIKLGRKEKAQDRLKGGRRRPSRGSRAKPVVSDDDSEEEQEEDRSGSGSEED
Protocol: (§1) The ATPase catalytic activity of BRM or BRG-1 was measured by the in vitro biochemical assay using ADP-Glo™ (Promega, V9102). The ADP-Glo™ kinase assay is performed in two steps once the reaction is complete. The first step is to deplete any unconsumed ATP in the reaction. The second step is to convert the reaction product ADP to ATP, which will be utilized by the luciferase to generate luminesce and be detected by a luminescence reader, such as Envision.
(§2) The assay reaction mixture (10 μL) contains 30 nM of BRM or BRG-1, 20 nM salmon sperm DNA (from Invitrogen, UltraPure™ Salmon Sperm DNA Solution, cat #15632011), and 400 μM of ATP in the ATPase assay buffer, which comprises of 20 mM Tris, pH 8, 20 mM MgCl2, 50 mM NaCl, 0.1% Tween-20, and 1 mM fresh DTT (Pierce™ DTT (Dithiothreitol), cat #20290). The reaction is initiated by the addition of the 2.5 μL ATPase solution to 2.5 μL ATP/DNA solution on low volume white Proxiplate-384 plus plate (PerkinElmer,cat #6008280) and incubates at room temperature for 1 hour. Then following addition of 5 μL of ADP-Glo™ Reagent provided in the kit, the reaction incubates at room temperature for 40 minutes. Then 10 μL of Kinase Detection Reagent provided in the kit is added to convert ADP to ATP, and the reaction incubates at room temperature for 60 minutes. Finally, luminescence measurement is collected with a plate-reading luminometer, such as Envision.
as §1, with “The” for “The ATPase catalytic activity of BRM or BRG-1 was measured by the in vitro biochemical assay using ADP-Glo™ (Promega, V9102). The”
as §2, with “BRG1,” for “BRG-1,”

BRM = molecular target: T2, BRM (Homo sapiens, UniProt P51531); experiment: ATPase catalytic activity assay (ADP-Glo), BRM; assay type: biochemical; settings: 30 nM BRM, 400 μM ATP; for IC50: 20 nM salmon sperm DNA, read-out: BRM IP50 (μM)*
T2 construct: made in house; host or cells: High Five insect cells
T2 sequence (P51531 whole entry): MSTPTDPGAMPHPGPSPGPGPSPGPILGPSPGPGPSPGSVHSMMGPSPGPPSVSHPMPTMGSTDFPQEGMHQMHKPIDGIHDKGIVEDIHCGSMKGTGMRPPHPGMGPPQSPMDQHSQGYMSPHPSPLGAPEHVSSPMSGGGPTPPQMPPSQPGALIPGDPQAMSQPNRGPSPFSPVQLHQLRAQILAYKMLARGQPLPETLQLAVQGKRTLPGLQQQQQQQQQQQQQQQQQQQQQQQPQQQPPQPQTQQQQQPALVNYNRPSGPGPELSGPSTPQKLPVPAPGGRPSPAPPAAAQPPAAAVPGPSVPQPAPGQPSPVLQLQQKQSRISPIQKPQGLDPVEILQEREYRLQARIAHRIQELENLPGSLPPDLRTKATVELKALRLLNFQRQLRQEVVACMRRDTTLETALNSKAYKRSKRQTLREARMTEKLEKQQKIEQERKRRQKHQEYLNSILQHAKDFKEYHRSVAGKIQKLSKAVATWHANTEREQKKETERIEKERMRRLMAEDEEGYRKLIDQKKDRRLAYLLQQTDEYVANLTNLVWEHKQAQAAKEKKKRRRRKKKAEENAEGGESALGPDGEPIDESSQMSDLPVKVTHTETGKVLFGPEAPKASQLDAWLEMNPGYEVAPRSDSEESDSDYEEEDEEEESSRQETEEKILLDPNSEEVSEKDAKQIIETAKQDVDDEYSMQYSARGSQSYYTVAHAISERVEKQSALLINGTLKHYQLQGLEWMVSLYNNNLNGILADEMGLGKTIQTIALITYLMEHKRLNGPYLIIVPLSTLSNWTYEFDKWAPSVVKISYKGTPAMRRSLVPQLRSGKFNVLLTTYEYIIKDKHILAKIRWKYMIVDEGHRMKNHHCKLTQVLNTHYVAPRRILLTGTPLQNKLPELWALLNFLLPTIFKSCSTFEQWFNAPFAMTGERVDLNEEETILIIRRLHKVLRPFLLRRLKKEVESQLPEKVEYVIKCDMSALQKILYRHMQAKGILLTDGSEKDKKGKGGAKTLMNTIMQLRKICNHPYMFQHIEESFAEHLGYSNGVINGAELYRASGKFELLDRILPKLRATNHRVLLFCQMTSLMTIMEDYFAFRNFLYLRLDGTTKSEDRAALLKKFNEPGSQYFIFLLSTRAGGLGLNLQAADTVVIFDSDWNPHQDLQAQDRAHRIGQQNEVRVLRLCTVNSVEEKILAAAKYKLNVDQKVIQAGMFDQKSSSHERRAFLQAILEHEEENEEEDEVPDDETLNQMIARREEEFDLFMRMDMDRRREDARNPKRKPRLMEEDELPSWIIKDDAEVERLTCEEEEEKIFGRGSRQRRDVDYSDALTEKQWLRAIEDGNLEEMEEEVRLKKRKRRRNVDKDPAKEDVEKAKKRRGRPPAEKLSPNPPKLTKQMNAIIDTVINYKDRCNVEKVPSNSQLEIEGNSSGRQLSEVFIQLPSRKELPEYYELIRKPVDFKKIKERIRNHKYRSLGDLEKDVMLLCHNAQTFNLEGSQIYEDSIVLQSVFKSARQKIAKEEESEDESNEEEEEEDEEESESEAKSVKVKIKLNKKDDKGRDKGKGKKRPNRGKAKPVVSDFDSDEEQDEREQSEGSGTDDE
Protocol: as §1, §2
as §1, with “The” for “The ATPase catalytic activity of BRM or BRG-1 was measured by the in vitro biochemical assay using ADP-Glo™ (Promega, V9102). The”
as §2, with “BRG1,” for “BRG-1,”

SMILES | IC50 (BRG-1) [µM] | Emax (BRG-1) [%] | BRM Max % Inhibition (BRM) [%] | IC50 (BRM) [µM]
Cc1cc(C(=O)NCC(=O)Nc2nc(-c3cccc(N4C[C@@H](C)O[C@@H](C)C4)c3)cs2)cn1S(=O)(=O)C(C)C [Compound 8, N-(2-((4-(3-((2S,6R)-2,6-dimethylmorpholino)phenyl)thiazol-2-yl)amino)-2-oxoethyl)-1-(isopropylsulfonyl)-5-methyl-1H-pyrrole-3-carboxamide] | 0.1 to 1 | > 70 | >95 | 0.1 to 1
CS(=O)(=O)n1cc(C(=O)NCC(=O)Nc2nc(-c3cccc(-c4ccncc4)c3)cs2)c2ncccc21 [Compound 3, 1-(methylsulfonyl)-N-(2-oxo-2-((4-(3-(pyridin-4-yl)phenyl)thiazol-2-yl)amino)ethyl)-1H-pyrrolo[3,2-b]pyridine-3-carboxamide] | > 5 | > 40 | >40 | > 5
Cc1cc(-c2cccc(-c3csc(NC(=O)CNC(=O)c4cn(S(C)(=O)=O)c5c4CCCC5)n3)c2)cc(C)n1 [Compound 35, N-(2-((4-(3-(2,6-dimethylpyridin-4-yl)phenyl)thiazol-2-yl)amino)-2-oxoethyl)-1-(methylsulfonyl)-4,5,6,7-tetrahydro-1H-indole-3-carboxamide] | 0.1 to 1 | > 80 | >95 | < 0.1
CS(=O)(=O)n1cc(C(=O)NCC(=O)Nc2nc(-c3cccc(N4CCC(O)CC4)c3)cs2)c2ccccc21 [Compound 39, N-(2-((4-(3-(4-hydroxypiperidin-1-yl)phenyl)thiazol-2-yl)amino)-2-oxoethyl)-1-(methylsulfonyl)-1H-indole-3-carboxamide] | 1 to 5 | < 30 | >80 | 0.1 to 1
Cc1cc(-c2cccc(-c3csc(NC(=O)CNC(=O)c4cc(C5CC5)n(S(C)(=O)=O)c4)n3)c2)cc(C)n1 [Compound 19, 5-cyclopropyl-N-(2-((4-(3-(2,6-dimethylpyridin-4-yl)phenyl)thiazol-2-yl)amino)-2-oxoethyl)-1-(methylsulfonyl)-1H-pyrrole-3-carboxamide] | 0.1 to 1 | > 80 | >95 | 0.1 to 1
Cc1cc(-c2cccc(-c3csc(NC(=O)CNC(=O)c4cn(S(=O)(=O)C(C)C)c(C)c4C)n3)c2)ccn1 [Compound 13, 1-(isopropylsulfonyl)-4,5-dimethyl-N-(2-((4-(3-(2-methylpyridin-4-yl)phenyl)thiazol-2-yl)amino)-2-oxoethyl)-1H-pyrrole-3-carboxamide] | 1 to 5 | > 80 | >95 | 0.1 to 1
Cc1cc(-c2cccc(-c3csc(NC(=O)CNC(=O)c4cn(S(=O)(=O)C(C)C)c5ccccc45)n3)c2)cc(C)n1 [Compound 34, N-(2-((4-(3-(2,6-dimethylpyridin-4-yl)phenyl)thiazol-2-yl)amino)-2-oxoethyl)-1-(isopropylsulfonyl)-1H-indole-3-carboxamide] | 1 to 5 | > 60 | >90 | < 0.1
Cc1cc(-c2cccc(-c3csc(NC(=O)CNC(=O)c4cn(S(=O)(=O)C(C)C)c(C)c4C)n3)c2)nc(C)n1 [Compound 14] | 0.1 to 1 | > 90 | >95 | < 0.1
CC(C)S(=O)(=O)n1cc(C(=O)NCC(=O)Nc2nc(-c3cccc(N4C[C@@H](C)O[C@@H](C)C4)n3)cs2)cc1Cl [Compound 37, 5-chloro-N-(2-((4-(6-((cis)-2,6-dimethylmorpholino)pyridin-2-yl)thiazol-2-yl)amino)-2-oxoethyl)-1-(isopropylsulfonyl)-1H-pyrrole-3-carboxamide] | 1 to 5 | > 40 | >80 | 0.1 to 1
Cc1nccc(-c2cccc(-c3csc(NC(=O)CNC(=O)c4cn(S(=O)(=O)C(C)C)c(C)c4C)n3)c2)n1 [Compound 17] | 0.1 to 1 | > 80 | >95 | < 0.1
C[C@@H]1CN(c2cccc(-c3csc(NC(=O)CNC(=O)c4cn(S(C)(=O)=O)c5c4CCCC5)n3)c2)C[C@H](C)O1 [Compound 28, N-(2-((4-(3-((cis)-2,6-dimethylmorpholino)phenyl)thiazol-2-yl)amino)-2-oxoethyl)-1-(methylsulfonyl)-4,5,6,7-tetrahydro-1H-indole-3-carboxamide] | 1 to 5 | > 40 | >90 | 0.1 to 1
Cc1c(C(=O)NCC(=O)Nc2nc(-c3cccc(N4C[C@@H](C)O[C@@H](C)C4)c3)cs2)cn(S(C)(=O)=O)c1C [Compound 15] | 0.1 to 1 | > 90 | >95 | < 0.1
Cc1c(C(=O)NCC(=O)Nc2nc(-c3cccc(N4C[C@@H](C)O[C@@H](C)C4)c3)cs2)cnn1C(C)(C)C [Compound 42, 1-(tert-butyl)-N-(2-((4-(3-((2R,6S)-2,6-dimethylmorpholino)phenyl)thiazol-2-yl)amino)-2-oxoethyl)-5-methyl-1H-pyrazole-4-carboxamide] | 0.1 to 1 |  |  | 0.1 to 1
Cc1cc(-c2cccc(-c3csc(NC(=O)CNC(=O)c4cn(S(C)(=O)=O)c5ccccc45)n3)n2)ncn1 [Compound 23, N-(2-((4-(6-(6-methylpyrimidin-4-yl)pyridin-2-yl)thiazol-2-yl)amino)-2-oxoethyl)-1-(methylsulfonyl)-1H-indole-3-carboxamide] | 1 to 5 | > 40 | >90 | 0.1 to 1
Cc1nccc(-c2cccc(-c3csc(NC(=O)CNC(=O)c4cn(S(C)(=O)=O)c5c4CCCC5)n3)n2)n1 [Compound 18, N-(2-((4-(6-(2-methylpyrimidin-4-yl)pyridin-2-yl)thiazol-2-yl)amino)-2-oxoethyl)-1-(methylsulfonyl)-4,5,6,7-tetrahydro-1H-indole-3-carboxamide] | > 5 | < 30 | >70 | 0.1 to 1
Cc1nccc(-c2cccc(-c3csc(NC(=O)CNC(=O)c4cc(C)n(S(=O)(=O)C(C)C)c4)n3)c2)n1 [Compound 16] | < 0.1 | > 95 | >95 | < 0.1
Cc1cc(-c2cccc(-c3csc(NC(=O)CNC(=O)c4cn(S(=O)(=O)C(C)C)c5c4CCCC5)n3)c2)cc(C)n1 [Compound 20, N-(2-((4-(3-(2,6-dimethylpyridin-4-yl)phenyl)thiazol-2-yl)amino)-2-oxoethyl)-1-(isopropylsulfonyl)-4,5,6,7-tetrahydro-1H-indole-3-carboxamide] | > 5 | < 30 | >95 | 0.1 to 1
Cc1nccc(-c2cccc(-c3csc(NC(=O)CNC(=O)c4cc(Cl)n(S(=O)(=O)C(C)C)c4)n3)c2)n1 [Compound 41, 5-chloro-1-isopropylsulfonyl-N-[2-[[4-[3-(2-methylpyrimidin-4-yl)phenyl]thiazol-2-yl]amino]-2-oxo-ethyl]pyrrole-3-carboxamide] | 0.1 to 1 | > 90 | >95 | < 0.1
Cc1cc(C(=O)NCC(=O)Nc2nc(-c3cccc(-c4ccnc(N(C)CC(=O)O)c4)c3)cs2)cn1S(C)(=O)=O [Compound 45, N-methyl-N-(4-(3-(2-(2-(5-methyl-1-(methylsulfonyl)-1H-pyrrole-3-carboxamido)acetamido)thiazol-4-yl)phenyl)pyridin-2-yl)glycine] | < 0.1 |  |  | < 0.1
